Like-named read-outs stand apart in the source and are kept apart here.
Experiments:
[1] = biological target: T1, CYP1A2 (Homo sapiens, UniProt P05177); experiment: Direct CYP450 inhibition in human liver microsomes (phenacetin O-dealkylation)
T1 sequence (P05177 1-516): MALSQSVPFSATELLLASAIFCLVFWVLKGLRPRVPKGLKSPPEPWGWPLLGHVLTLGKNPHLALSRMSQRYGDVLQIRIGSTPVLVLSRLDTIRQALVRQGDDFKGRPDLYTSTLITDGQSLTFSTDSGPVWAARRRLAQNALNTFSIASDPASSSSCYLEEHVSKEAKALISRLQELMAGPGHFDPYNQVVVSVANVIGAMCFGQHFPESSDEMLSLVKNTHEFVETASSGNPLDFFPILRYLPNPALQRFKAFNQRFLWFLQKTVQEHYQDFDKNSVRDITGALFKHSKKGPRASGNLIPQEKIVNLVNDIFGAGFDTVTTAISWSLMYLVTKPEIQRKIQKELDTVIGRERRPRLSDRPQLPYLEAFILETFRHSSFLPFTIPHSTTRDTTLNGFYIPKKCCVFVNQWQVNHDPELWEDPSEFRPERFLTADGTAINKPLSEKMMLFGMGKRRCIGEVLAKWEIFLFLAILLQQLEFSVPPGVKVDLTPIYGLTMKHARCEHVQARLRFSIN
Source text: A mixed‐gender pool of 200 individual human liver microsomal samples was used.
This LIMS utilizes the Levenberg-Marquardt algorithm to perform nonlinear regression fitting of the data to the following 4-parameter sigmoidal-logistic IC50 equation:
As percent of control values are utilized, the Min is set to 0 and the Max is set to 100 (or other values, as appropriate). […] Therefore, when an IC50 value falls outside the concentration range studied, the IC50 values are reported to be greater than the highest concentrations of test article evaluated.

[2] = tested on: CYP450 enzymes; experiment: Time- and metabolism-dependent CYP450 inhibition in human liver microsomes; type: in vitro ADME; details: compared to direct inhibition
[3] = biological target: CYP2D6 (Homo sapiens, UniProt P10635); experiment: Time- and metabolism-dependent inhibition, 30-min preincubation with or without NADPH (dextromethorphan O-demethylation); details: for IC50: human liver microsomes; for inhibition at 30 min: both, human, pooled human liver microsomes, pH 7.4, probe dextromethorphan (O-demethylation)
Protocol: These preincubations allowed assessment of the NADPH‐dependence of any time‐dependent CYP450 inhibition. Following the 30‐min preincubation, the NADPH‐generating system and/or marker substrate was added, and incubations were continued as described previously to measure residual CYP450 enzyme activity.

[4] = biological target: T2, OATP1B3 (Homo sapiens, UniProt Q9NPD5); experiment: Transporter inhibition, uptake of [3H]-estradiol-17β-glucuronide in HEK293 cells; type: in vitro ADME
T2 construct: host or cells: HEK293
T2 sequence (Q9NPD5 1-702): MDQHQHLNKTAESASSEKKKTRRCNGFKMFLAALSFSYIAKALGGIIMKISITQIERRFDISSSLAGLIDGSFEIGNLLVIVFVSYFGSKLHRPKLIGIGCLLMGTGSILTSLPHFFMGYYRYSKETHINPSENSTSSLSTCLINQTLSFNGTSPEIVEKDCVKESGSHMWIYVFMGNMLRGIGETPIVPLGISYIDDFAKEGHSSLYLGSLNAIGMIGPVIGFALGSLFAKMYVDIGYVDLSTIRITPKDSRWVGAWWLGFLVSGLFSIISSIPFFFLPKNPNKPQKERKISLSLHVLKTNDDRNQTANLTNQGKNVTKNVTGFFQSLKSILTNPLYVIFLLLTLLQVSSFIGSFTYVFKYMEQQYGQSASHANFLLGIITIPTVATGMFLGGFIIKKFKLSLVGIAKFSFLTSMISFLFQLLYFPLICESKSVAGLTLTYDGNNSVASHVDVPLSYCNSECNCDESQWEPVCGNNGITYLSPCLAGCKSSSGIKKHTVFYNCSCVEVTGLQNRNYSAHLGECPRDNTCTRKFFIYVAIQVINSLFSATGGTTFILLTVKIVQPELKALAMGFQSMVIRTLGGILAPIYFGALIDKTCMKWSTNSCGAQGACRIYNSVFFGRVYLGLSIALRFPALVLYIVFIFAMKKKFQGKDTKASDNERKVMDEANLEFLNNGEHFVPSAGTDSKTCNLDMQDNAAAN
Protocol: (§1) The test compound (FFA or nFFA) or the positive control substrate ([…], respectively) was added to the donor chamber. […] Cells were then washed, lysed with scintillation cocktail, and analyzed for the probe substrate with a MicroBeta scintillation counter (PerkinElmer, Hopkinton, MA). Transcellular transporter assay conditions are described in Supplemental Table 1. Calculation of IC50 values was based on bidirectional permeability of probe substrate with and without the inhibitor in MDCKII cells expressing BCRP and in Caco‐2 cells expressing P‐gp, and transporter‐dependent uptake of probe substrate in HEK293 cells expressing all other transporters (Supplemental Table 1).
The transporter-specific uptake of the probe substrate in cells was determined by subtracting the accumulation in the control cells from the accumulation in the transporter-expressing cells.

[5] = biological target: T3, BCRP (Homo sapiens, UniProt Q9UNQ0); experiment: Transporter inhibition, bidirectional permeability of prazosin in MDCKII-BCRP cells; type: in vitro ADME
T3 construct: host or cells: MDCKII
T3 sequence (Q9UNQ0 1-655): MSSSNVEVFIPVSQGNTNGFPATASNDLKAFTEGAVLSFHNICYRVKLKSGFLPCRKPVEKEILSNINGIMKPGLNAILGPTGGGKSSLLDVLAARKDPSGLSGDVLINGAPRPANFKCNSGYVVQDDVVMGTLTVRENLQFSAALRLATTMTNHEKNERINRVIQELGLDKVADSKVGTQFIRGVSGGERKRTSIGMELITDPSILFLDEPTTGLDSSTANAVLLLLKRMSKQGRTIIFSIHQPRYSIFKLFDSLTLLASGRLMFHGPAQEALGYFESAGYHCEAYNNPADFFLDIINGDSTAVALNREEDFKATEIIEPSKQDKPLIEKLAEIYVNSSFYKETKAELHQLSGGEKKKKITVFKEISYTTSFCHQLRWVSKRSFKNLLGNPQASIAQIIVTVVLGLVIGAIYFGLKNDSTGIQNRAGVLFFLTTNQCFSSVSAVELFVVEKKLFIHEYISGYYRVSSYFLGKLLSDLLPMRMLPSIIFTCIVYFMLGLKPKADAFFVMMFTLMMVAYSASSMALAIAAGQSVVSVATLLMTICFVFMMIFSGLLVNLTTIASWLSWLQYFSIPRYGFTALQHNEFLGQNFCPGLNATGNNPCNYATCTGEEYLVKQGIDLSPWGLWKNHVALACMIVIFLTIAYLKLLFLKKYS
Protocol: as §1
The net flux for human epithelial colorectal adenocarcinoma cells (Caco-2; P-gp) and MDCKII-BCRP inhibition determination was calculated according to the equation: […]

[6] = tested on: cultured human hepatocytes; experiment: Cytotoxicity: LDH release and microscopic evaluation; type: cell-based; details: for hepatocyte morphology: up to 40 μM FFA or 50 μM nFFA for 3 consecutive days; for LDH release: up to 40 μM FFA or 50 μM nFFA, all three hepatocyte cultures
Protocol: Data were processed with KC4 Signature software (version 3.4, Rev 21, BioTek Instruments, Inc.) and graphed with Microsoft Excel 2003 (Microsoft Corp.). Percent LDH release was calculated based on the following equations: […]

CYP2D6, sequence (P10635 whole entry): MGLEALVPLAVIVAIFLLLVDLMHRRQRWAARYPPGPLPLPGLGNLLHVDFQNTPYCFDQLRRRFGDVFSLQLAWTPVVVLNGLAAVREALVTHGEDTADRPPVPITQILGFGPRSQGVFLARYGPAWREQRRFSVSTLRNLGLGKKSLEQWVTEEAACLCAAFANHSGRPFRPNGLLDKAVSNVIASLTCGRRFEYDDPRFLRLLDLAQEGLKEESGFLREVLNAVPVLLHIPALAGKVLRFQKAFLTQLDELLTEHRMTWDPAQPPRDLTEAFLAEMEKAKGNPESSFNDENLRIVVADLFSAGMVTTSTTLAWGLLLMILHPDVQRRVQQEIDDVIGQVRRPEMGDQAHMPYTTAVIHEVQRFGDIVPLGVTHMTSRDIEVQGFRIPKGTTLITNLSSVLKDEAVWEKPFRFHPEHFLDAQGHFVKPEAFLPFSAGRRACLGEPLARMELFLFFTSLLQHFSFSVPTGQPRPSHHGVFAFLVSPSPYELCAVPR

| SMILES | IC50 [1] [µM] | Basic model: Potential for clinical inhibition ([1]; substrate phenacetin) | Static mechanistic model: Potential for clinical inhibition ([1]; substrate phenacetin) | time- or metabolism-dependent inhibition of CYP450 enzyme activity [2] | IC50 ([3]; IC50 (+ NADPH), 30-min preincubation in the presence of NADPH) [µM] | IC50 ([3]; IC50 (- NADPH), 30-min preincubation in the absence of NADPH) [µM] | inhibition at 30 min ([3]; % inhibition (+ NADPH), 30-min preincubation in the presence of NADPH) [%] | inhibition at 30 min ([3]; % inhibition (- NADPH), 30-min preincubation in the absence of NADPH) [%] | IC50 [4] [µM] | IC50 [5] [µM] | hepatocyte morphology [6] | LDH release [6] [% positive control] | IC50 ([1]; direct inhibition, human liver microsomes, substrate phenacetin) [µM] | % inhibition (- NADPH) ([3]; 30-min preincubation in the absence of NADPH) [%] | % inhibition (+ NADPH) ([3]; 30-min preincubation in the presence of NADPH) [%] | IC50 ([3]; read-out: IC50 (+ NADPH), 30-min preincubation in the presence of NADPH) [µM] | IC50 ([3]; read-out: IC50 (- NADPH), 30-min preincubation in the absence of NADPH) [µM] | IC50 ([4]; HEK293, probe [3H]-estradiol-17β-glucuronide 50 nM, read-out: IC50) [µM] | IC50 ([5]; MDCKII, probe prazosin 1 µM, read-out: IC50) [µM] |
| --- | --- | --- | --- | --- | --- | --- | --- | --- | --- | --- | --- | --- | --- | --- | --- | --- | --- | --- | --- |
| CCNC(C)Cc1cccc(C(F)(F)F)c1 (racemic) [FFA, (RS)‐ethyl(α‐methyl‐3‐trifluoromethylphenethyl)amine, reference compound] | > 60 | No (Potential to inhibit if R1 ≥ 1.02) | No (Potential to inhibit if AUCR ≥ 1.25) | did not have any additional inhibitory effects | 10 | 4.5 | 82 | 89 | > 300 | > 100 | No morphological changes | ≤ 8.5 | – | – | – | – | – | – | – |
| CC(N)Cc1cccc(C(F)(F)F)c1.Cl (stereo not drawn) [nFFA, [1‐(3‐trifluoromethyl)phenyl]propan‐2‐amine hydrochloride] | – | No (Potential to inhibit if R1 ≥ 1.02) | No (Potential to inhibit if AUCR ≥ 1.25) | did not have any additional inhibitory effects | – | – | – | – | – | – | No morphological changes | ≤ 13.8 | > 100 | 82 | 80 | 17 ± 1 | 15 ± 1 | > 50 | > 50 |
